The results in this text go back to the Kinase Knowledgebase extract (Sharma et al. 2016).

As usually defined, the IC50 is the concentration that inhibits the measured activity by half. Low readings indicate higher potency, high ones lower potency.

For test [1], the target named is CDK2 (UniProt P24941). Put plainly: Enzyme Assay.
The target of test [2] is CDK2 (UniProt P24941). Put plainly: Enzyme Assay. This is another data set of the same source.

Take `COC(=O)[C@@]1(O)C[C@H]2O[C@]1(C)n1c3ccccc3c3c4c(c5c6ccccc6n2c5c31)C(=O)N[C@H]4Cc1ccccc1`: the IC50 against CDK2 [1] was found to be 1 µM; at CDK2 [2], 0.15 µM.

Turning to `CC(C)(C)n1nc(-c2cccc3ccccc23)c2c(N)ncnc21`, the IC50 against CDK2 [1] came out at 18 µM; on CDK2 [2] it was 0.015 µM. The like results for `COC(=O)[C@@]1(O)C[C@H]2O[C@]1(C)n1c3ccccc3c3c4c(c5c6ccccc6n2c5c31)C(=O)N[C@H]4C(C)C` were, in that order, 29 µM and 1.9 µM. At CDK2 [1], `COC(=O)[C@@]1(O)C[C@H]2O[C@]1(C)n1c3ccccc3c3c4c(c5c6ccccc6n2c5c31)C(=O)N[C@H]4CCc1ccccc1` yielded an IC50 of 3.7 µM. In other words, the single-digit micromolar range. In the case of `CCC(C)[C@@H]1NC(=O)c2c1c1c3ccccc3n3c1c1c2c2ccccc2n1[C@H]1C[C@](O)(C(=O)OC)[C@]3(C)O1` (stereo partly drawn), the values for the IC50 against CDK2 [1] and against CDK2 [2] were 5.8 µM and over 3.7 µM, respectively. Take `COC(=O)[C@@]1(O)C[C@H]2O[C@]1(C)n1c3ccccc3c3c4c(c5c6ccccc6n2c5c31)C(=O)N[C@@H]4Cc1ccccc1`: the IC50 at CDK2 [1] and at CDK2 [2] was 10 µM throughout. For the compound `COC(=O)[C@@]1(O)C[C@H]2O[C@]1(C)n1c3ccccc3c3c4c(c5c6ccccc6n2c5c31)C(=O)N[C@H]4CC(C)C`, the IC50 against CDK2 [1] worked out at 22 µM; at CDK2 [2], 0.07 µM.
